In ChEMBL document CHEMBL1159086, “Design, synthesis and SAR analysis of novel selective sigma1 ligands (Part 2)” (Bioorg Med Chem, 2010):

Key:
[1] = molecular target: Sigma non-opioid intracellular receptor 1 (Rattus norvegicus, UniProt Q9R0C9); assay: Displacement of [3H](+)-pentazocine from sigma 1 opioid receptor in rat liver homogenate; assay type: tissue-based
[2] = Displacement of [3H]ditolylguanidine from sigma 2 opioid receptor in rat liver homogenate; assay type: tissue-based
[3] = Selectivity for rat liver sigma 1 opioid receptor over rat liver sigma 2 opioid receptor
Mu-type opioid receptor = Mu-type opioid receptor (Cavia porcellus, UniProt P97266); assay: Displacement of [3H]DAMGO from mu-type opioid receptor in guinea pig brain homogenate; assay type: tissue-based
Chain of Mu-type opioid receptor (P97266 whole entry): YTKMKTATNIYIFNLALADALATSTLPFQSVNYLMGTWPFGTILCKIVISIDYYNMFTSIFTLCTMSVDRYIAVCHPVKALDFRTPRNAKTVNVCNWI

[4] = molecular target: Kappa-type opioid receptor (Cavia porcellus) (UniProt P41144); assay: Displacement of [3H]-U-69593 from kappa-type opioid receptor in guinea pig brain homogenate at 1 uM; assay type: tissue-based
Chain of Kappa-type opioid receptor (Cavia porcellus) (P41144 whole entry): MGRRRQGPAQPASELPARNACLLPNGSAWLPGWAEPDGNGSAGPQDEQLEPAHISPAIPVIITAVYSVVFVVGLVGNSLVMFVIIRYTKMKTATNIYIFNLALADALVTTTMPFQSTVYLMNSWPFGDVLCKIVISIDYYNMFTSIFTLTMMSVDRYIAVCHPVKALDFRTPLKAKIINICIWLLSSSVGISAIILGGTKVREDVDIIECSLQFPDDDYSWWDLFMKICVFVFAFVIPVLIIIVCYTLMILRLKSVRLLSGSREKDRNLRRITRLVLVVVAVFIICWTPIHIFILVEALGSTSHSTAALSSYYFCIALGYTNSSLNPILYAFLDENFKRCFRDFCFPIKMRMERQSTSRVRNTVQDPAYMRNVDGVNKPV

[5] = molecular target: Delta-type opioid receptor (Rattus norvegicus) (UniProt P33533); assay: Displacement of [3H]DPDPE from delta opioid receptor in rat brain homogenate at 1 uM; assay type: tissue-based
Chain of Delta-type opioid receptor (Rattus norvegicus) (P33533 whole entry): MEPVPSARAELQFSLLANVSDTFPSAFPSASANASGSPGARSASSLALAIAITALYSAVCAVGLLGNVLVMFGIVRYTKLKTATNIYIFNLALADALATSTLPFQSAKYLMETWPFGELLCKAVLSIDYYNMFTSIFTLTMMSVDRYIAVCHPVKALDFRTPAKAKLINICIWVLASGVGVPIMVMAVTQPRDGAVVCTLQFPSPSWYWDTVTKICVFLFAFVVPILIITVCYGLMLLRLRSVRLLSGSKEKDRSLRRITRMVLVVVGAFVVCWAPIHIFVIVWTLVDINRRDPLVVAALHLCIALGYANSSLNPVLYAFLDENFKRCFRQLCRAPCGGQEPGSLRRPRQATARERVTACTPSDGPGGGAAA

[6] = molecular target: Delta-type opioid receptor (Rattus norvegicus, UniProt P33533); assay: Displacement of [3H]DPDPE from delta opioid receptor in rat brain homogenate; assay type: tissue-based
Chain of Delta-type opioid receptor (P33533 whole entry): as above

[7] = molecular target: Mu-type opioid receptor (Cavia porcellus) (UniProt P97266); assay: Displacement of [3H]DAMGO from mu-type opioid receptor in guinea pig brain homogenate at 1 uM; assay type: tissue-based
Chain of Mu-type opioid receptor (Cavia porcellus) (P97266 whole entry): as the sequence (P97266 whole entry) above

[8] = molecular target: Kappa-type opioid receptor (Cavia porcellus, UniProt P41144); assay: Displacement of [3H]-U-69593 from kappa-type opioid receptor in guinea pig brain homogenate; assay type: tissue-based
Chain of Kappa-type opioid receptor (P41144 whole entry): as the sequence (P41144 whole entry) above

Chain of Sigma non-opioid intracellular receptor 1 (Q9R0C9 whole entry): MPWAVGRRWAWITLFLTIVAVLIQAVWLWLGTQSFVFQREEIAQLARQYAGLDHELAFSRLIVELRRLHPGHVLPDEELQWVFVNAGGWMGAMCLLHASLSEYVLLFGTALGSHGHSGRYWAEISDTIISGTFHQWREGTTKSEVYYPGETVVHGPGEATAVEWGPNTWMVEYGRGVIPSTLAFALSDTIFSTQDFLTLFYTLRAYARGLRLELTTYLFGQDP

| Ki [1] [nM] | Ki [2] [nM] | selectivity ratio [3] | Ki (Mu-type opioid receptor) [nM] | inhibition [4] [%] | inhibition [5] [%] | Ki [6] [nM] | inhibition [7] [%] | Ki [8] [nM] | SMILES |
| --- | --- | --- | --- | --- | --- | --- | --- | --- | --- |
| 27.3 | 707 | 26 |  |  |  |  |  |  | COc1ccc2cc(/C(C)=C/CN(C)C)ccc2c1 |
| 4.17 | 309 | 74 |  |  |  |  |  |  | C/C(=C\CN(C)Cc1ccccc1)c1ccc(-c2ccccc2)cc1 |
| 13.7 | 568 | 41 |  |  |  |  |  |  | COc1ccc2cc(/C(C)=C/CN(C)Cc3ccccc3)ccc2c1 |
| 4.41 | 136 | 31 |  |  |  |  |  |  | COc1ccc2cc(/C(C)=C/CN3CCCCC3)ccc2c1 |
| 10.4 | 154 | 15 |  |  |  |  |  |  | COc1ccc2cc(C(C)(O)CCN3CCCCC3)ccc2c1 (stereo not drawn) |
| 14.4 | 1550 | 108 |  |  |  |  |  |  | COc1ccc2cc(C(C)CCN(C)C)ccc2c1 (racemic) |
| 3.59 | 214 | 60 | 248 | 15 | 0 |  |  |  | CC(CCN(C)Cc1ccccc1)c1ccc(-c2ccccc2)cc1 (racemic) |
| 6.04 | 940 | 156 |  | 30 |  | 41 | 32 |  | COc1ccc2cc(C(C)(O)CCN(C)Cc3ccccc3)ccc2c1 (racemic) |
| 2.38 | 215 | 90 |  | 30 | 31 |  | 45 |  | CN(CCC(C)(O)c1ccc(-c2ccccc2)cc1)Cc1ccccc1 (racemic) |
| 38.8 | > 10000 | > 258 |  |  |  |  |  |  | COc1ccc2cc(C(C)(O)CCN(C)C)ccc2c1 (racemic) |
| 2.31 | 169 | 73 |  |  |  | 171 | 32 | 841 | COc1ccc2cc(C(C)CCN(C)Cc3ccccc3)ccc2c1 (racemic) |
| 1.29 | 169 | 131 |  |  |  |  |  |  | COc1ccc2cc(C(C)CCN3CCCCC3)ccc2c1 (racemic) |
